Measurements published in patent US10370436B2, “Anti-pseudomonas Psl binding molecules and uses thereof” (priority 2011, dated 2019).

Tests used:
[1] = tested on: luminescent P. aeruginosa serogroup 05 strain (PAO1.lux); assay: Opsonophagocytosis killing (OPK) assay, PAO1.lux; type: cell-based, Pseudomonas aeruginosa
Protocol: (§1) This example describes the evaluation of prioritized human IgG1 antibodies to promote OPK of P. aeruginosa. […] OPK assays were performed as described in (DiGiandomenico, A., et al., Infect Immun 72, 7012-7021 (2004)), with modifications. Briefly, assays were performed in 96-well plates using 0.025 ml of each OPK component; P. aeruginosa strains; diluted baby rabbit serum; differentiated HL-60 cells; and monoclonal antibody. In some OPK assays, luminescent P. aeruginosa strains, which were constructed as described (Choi, K. H., et al., Nat Methods 2, 443-448 (2005)), were used. Luminescent OPK assays were performed as described above but with determination of relative luciferase units (RLUs) using a Perkin Elmer ENVISION Multilabel plate reader (Perkin Elmer).
This example describes two series of experiments evaluating the ability of PMB-mAb conjugates to promote OPK of P. aeruginosa. In the first experiments (FIGS. 15A-B), conjugate-mediated OPK activity by human HL-60 neutrophil cell line in the presence of rabbit complement was evaluated using P. aeruginosa strains expressing bacterial luciferase as described in Example 2. R347 was used as a negative control in these experiments. […] In the second series of experiments, reduction in luminescence following 2 h incubation relative to control lacking mAb was used to determine % killing.

[2] = tested on: P. aeruginosa strain 9882-80 (O11); assay: OPK assay, strain 9882-80.lux; type: cell-based, Pseudomonas aeruginosa; details: strain 9882-80.lux (O11); FIG. 2B
Protocol: as §1
The ability of the WapR-004 and Cam-003 antibodies to mediate OPK activity against another clinically relevant O-antigen serotype strain, 9882-80.lux, was evaluated.

P. aeruginosa PAO1 cells = assay: Flow cytometry (FACS) whole cell binding; set-up: species or system Pseudomonas aeruginosa; details: PAO1ΔpslA; FIG. 3C
Text: For IgG expression, the VH and VL chains of selected antibodies were cloned into human IgG1 expression vectors, co-expressed in HEK293 cells, and purified by protein A affinity chromatography as described (Persic, L., et al., Gene 187, 9-18 (1997)). Human IgG1 antibodies made with the variable regions from these selected serotype independent phage were confirmed for P. aeruginosa specificity and prioritized for subsequent analysis by whole cell binding to dominant clinically relevant serotypes by FACS analysis (FIG. 1F), since this method is more stringent than ELISA. For the flow cytometry based binding assays mid-log phase P. aeruginosa strains were concentrated in PBS to an OD650 of 2.0. […] Samples were run on a LSR II flow cytometer (BD Biosciences) and analyzed using BD FacsDiva (v. 6.1.3) and FlowJo (v. 9.2; TreeStar).
CAM-003 is specific for the P. aeruginosa Psl surface exopolysaccharide and mediates potent OPK activity and protection in multiple in vivo models. […] Conjugation efficiency of PMB-mAbs variants was determined by mass spectrometry analysis of heavy chains in purified conjugates. […] Contamination with free PMB in the purified preparations was determined to be negligible. Binding of PMB-Cam-003 and PMB-A7 conjugates to P. aeruginosa PAO1 cells was evaluated by FACS. […] Samples were stained and analyzed as previously described in Example 1. […]

[3] = tested on: P. aeruginosa PAO1.lux association with A549 cells; assay: Cell attachment assay, PAO1.lux to A549 cells; type: cell-based, Pseudomonas aeruginosa; details: MOI of 10, FIG. 4, FIG. 9B
Protocol: Anti-Psl antibodies were added to a confluent monolayer of A549 cells (an adenocarcinoma human alveolar basal epithelial cell line) grown in opaque 96-well plates (Nunc Nunclon Delta). Log-phase luminescent P. aeruginosa PAO1 strain (PAO1.lux) was added at an MOI of 10. After incubation of PAO1.lux with A549 cells at 37° C. for 1 hour, the A549 cells were washed, followed by addition of LB+0.5% glucose. Bacteria were quantified following a brief incubation at 37° C. as performed in the OPK assay described in Example 2. Measurements from wells without A549 cells were used to correct for non-specific binding.

[4] = tested on: P. aeruginosa strains PAO1, 33356, 6294, 6077, 6206; assay: Acute pneumonia model, organ burden; type: in vivo, BALB/c mice
Protocol: Antibodies or PBS were administered 24 hours before infection in each model. P. aeruginosa acute pneumonia, keratitis, and thermal injury infection models were performed as described (DiGiandomenico, A., et al., Proc Natl Acad Sci USA 104, 4624-4629 (2007)), with modifications. In the acute pneumonia model, BALB/c mice (The Jackson Laboratory) were infected with P. aeruginosa strains suspended in a 0.05 ml inoculum. In the thermal injury model, CF-1 mice (Charles River) received a 10% total body surface area burn with a metal brand heated to 92° C. for 10 seconds. Animals were infected subcutaneously with P. aeruginosa strain 6077 at the indicated dose. For organ burden experiments, acute pneumonia was induced in mice followed by harvesting of lungs, spleens, and kidneys 24 hours post-infection for determination of CFU.

P. aeruginosa PAO10 LPS = assay: Endotoxemia (LPS challenge) model; type: in vivo, C57Bl/6 mice; details: control mice dosed with unconjugated mAb
Protocol: In particular, C57Bl/6 mice (10 per group) were dosed i.p. with mAb or PMB-mAb conjugate 6 h prior to challenge with P. aeruginosa PAO10 LPS (Sigma) and D-galactosamine. PMB control was dosed i.p. 2 h prior to challenge at 0.2 mg/kg and typically provides 80-100% protection. Control mice dosed with unconjugated CAM-003 all died within 18 h.
TM conjugates were dosed at 45, 15 and 5 mg/kg.

With “Cam-003: human IgG1 anti-Psl monoclonal antibody, VH SEQ ID NO: 1 and VL SEQ ID NO: 2” the OPK EC50 ([1]; FIG. 9A) was 0.06 µg/mL, the “OPK activity (concentration dependent killing)” value ([1]; human IgG1 antibodies, differentiated HL-60 cells, baby rabbit serum, FIG. 2A) was “superior OPK activity” and the OPK activity [2] was “OPK activity extends to strain 9882-80”. For the same substance, the FACS binding (P. aeruginosa PAO1 cells) was “abolished”, the “inhibition of association of PAO1.lux to A549 cells” value [3] was “most active at inhibiting P. aeruginosa cell attachment to A549 lung epithelial cells” and the “dissemination to the spleen and kidneys” value ([4]; PAO1, 6294 and 6077, FIGS. 7A, 7C, 7D) was “marked effect in reducing dissemination to the spleen and kidneys”. For the same substance, the “lung burden (viable CFU)” value ([4]; PAO1, 33356, 6294, 6077, 24 hours post-infection, FIGS. 7A-D) was “effective at reducing P. aeruginosa lung burden against all four strains tested”, the “lung burden, dose dependence” value ([4]; cytotoxic strain 6077, FIG. 7D) was “the low dose was as effective as the higher dose” and the “time within which all mice died” value (P. aeruginosa PAO10 LPS) was at most 18 h.
